Experimental findings from BindingDB's records for patent US8962648 (Oncotherapy Science, 2015) are described below.

The test addresses T1, Lymphokine-activated killer T-cell-originated protein kinase (Homo sapiens, UniProt Q96KB5).
T1 sequence (Q96KB5 whole entry): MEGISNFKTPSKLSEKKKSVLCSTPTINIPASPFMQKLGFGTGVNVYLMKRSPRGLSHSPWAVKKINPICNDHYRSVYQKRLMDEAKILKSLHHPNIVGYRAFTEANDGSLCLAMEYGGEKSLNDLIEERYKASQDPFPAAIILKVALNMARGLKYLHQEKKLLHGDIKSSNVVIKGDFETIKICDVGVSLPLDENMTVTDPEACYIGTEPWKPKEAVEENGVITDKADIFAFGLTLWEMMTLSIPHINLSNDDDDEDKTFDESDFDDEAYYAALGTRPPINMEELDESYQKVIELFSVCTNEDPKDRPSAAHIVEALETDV
As to the kind of experiment: Kinase Assay. The settings on record: pH 7.4; 25 °C. As to the method:
PBK activity was determined in the presence or absence of compounds using fluorescein isothiocyanate-labeled (FITC-labeled) histone H3 peptide as a substrate. […] The serially diluted compounds, 0.8 ng/micro-L PBK (Carna Biosciences) and 100 nM FITC-labeled histone H3 peptide were reacted in a reaction buffer (20 mM HEPES, 0.01% Tween-20, 0.3 mM MgCl2, 2 mM dithiothreitol, 50 micro-M ATP, pH 7.4) at room temperature for 1 hour. The reaction was stopped by the addition of three fold assay volume of progressive binding solution. Following 0.5 hour incubation at room temperature.
`Nc1ccc(-c2c(O)ccc3[nH]c(=O)c4sccc4c23)cc1O` [US8962648, 217]: it took 2.3 nM to reach half-maximal inhibition (IC50).

As for `CN(C)CCc1ccc(-c2c(O)ccc3[nH]c(=O)c4sccc4c23)cc1` [US8962648, 93], 5.4 nM corresponded to half-maximal inhibition (IC50).

Take `CC(CN)c1ccc(-c2c(O)ccc3[nH]c(=O)c4sccc4c23)cc1Cl` (centres undefined) [US8962648, 1280]: the IC50 stood at 10 nM.

`CCC(N)c1ccc(-c2c(O)cc(Cl)c3[nH]c(=O)c4sccc4c23)cc1` (centres undefined) [US8962648, 1088] came in with an IC50 of 16 nM.

`CC(N)Cc1ccc(-c2c(O)ccc3[nH]c(=O)c4sccc4c23)cc1` (centres undefined) [US8962648, 1095] returned an IC50 of 1.3 nM.

`NCCc1ccc(-c2c(O)cc(Cl)c3[nH]c(=O)c4sccc4c23)cc1Cl` [US8962648, 1268] returned an IC50 of 3.9 nM.

`Cc1cc(O)c(-c2ccc(C(C)CS(N)(=O)=O)cc2)c2c1[nH]c(=O)c1sccc12` (centres undefined) [US8962648, 1419] had an IC50 of 82 nM.

Turning to `CC(C)(CN)c1ccc(-c2c(O)cc(Cl)c3[nH]c(=O)c4sccc4c23)cc1` [US8962648, 1260], half-maximal inhibition (IC50) was put at 75 nM.

For `Cc1cc(O)c(-c2ccc(C3(CN(C)C)CCC3)cc2)c2c1[nH]c(=O)c1sccc12` [US8962648, 1372], the IC50 was 42 nM.

In turn, `CCC(N)c1ccc(-c2c(OC)ccc3[nH]c(=O)c4sccc4c23)cc1` (centres undefined) [US8962648, 337] displayed an IC50 of 5.2 nM.

Regarding `Cc1cc(O)c(-c2ccc([C@@H](C)CN)cc2)c2c1[nH]c(=O)c1sc(Cl)cc12` [US8962648, 1353], the midpoint of inhibition, the IC50, lay at 4 nM.

`CC(c1ccc(-c2cccc3[nH]c(=O)c4sccc4c23)cc1)N(C)C` (centres undefined) [US8962648, 346] yielded an IC50 of 9.2 nM.

`COc1ccc2[nH]c(=O)c3sccc3c2c1-c1ccc([C@@H](C)N)cc1` [US8962648, 274] displayed an IC50 of 3.8 nM.

In the case of `CCC(CC)(CN)c1ccc(-c2c(O)ccc3[nH]c(=O)c4sccc4c23)cc1` [US8962648, 1209], the IC50 was found to be 1.8 nM.

For the molecule `C[C@@H](c1ccc(-c2c(O)ccc3[nH]c(=O)c4sccc4c23)cc1)N(C)C` [US8962648, 335], the IC50 came to 2.9 nM.

As to `CNCCc1ccc(-c2c(O)cc(Br)c3[nH]c(=O)c4sccc4c23)cc1F` [US8962648, 1245], the IC50 stood at 45 nM.

`C[C@@H](N)c1ccc(-c2c(O)ccc3[nH]c(=O)c4sccc4c23)cc1` [US8962648, 275]: half-maximal inhibition (IC50) required 0.54 nM.

Turning to `CCC(CN)c1ccc(-c2c(O)ccc3[nH]c(=O)c4sccc4c23)cc1` (centres undefined) [US8962648, 1309], half-maximal inhibition (IC50) was put at 0.74 nM.

With `CC(N)c1ccc(-c2c(O)cc(Br)c3[nH]c(=O)c4sccc4c23)cc1` (centres undefined) [US8962648, 1032], the IC50 came out at 47 nM.

Molecule `N#CC1(c2ccc(-c3c(O)ccc4[nH]c(=O)c5sccc5c34)cc2)CC1` [US8962648, 361] gave an IC50 of 32 nM.

For the molecule `C[C@H](CN)c1ccc(-c2c(O)ccc3[nH]c(=O)c4sccc4c23)cc1` [US8962648, 1163], the IC50 was 1.3 nM.

For `COc1cc(C)c2[nH]c(=O)c3sccc3c2c1-c1ccc(CCN)c(Cl)c1` [US8962648, 1263], the IC50 came out at 33 nM.

`C[C@@H](NS(C)(=O)=O)c1ccc(-c2c(O)ccc3[nH]c(=O)c4sccc4c23)cc1` [US8962648, 301] came in with an IC50 of 3.2 nM.

`C[C@H](CN(C)C)c1ccc(-c2c(O)ccc3[nH]c(=O)c4sccc4c23)cc1` [US8962648, 1172] registered an IC50 of 4 nM.

`CN(C)CC(C)(C)c1ccc(-c2c(O)ccc3[nH]c(=O)c4sccc4c23)cc1` [US8962648, 308] displayed an IC50 of 2.8 nM.

`COc1cc(Cl)c2[nH]c(=O)c3sccc3c2c1-c1ccc(C2(CN)CCC2)cc1` [US8962648, 1321]: the IC50 was determined as 96 nM.

In the case of `CN[C@H](C)c1ccc(-c2c(OC)cc(C)c3[nH]c(=O)c4sccc4c23)cc1` [US8962648, 1265], the IC50 came out at 67 nM.

`CC(CBr)NS(=O)(=O)c1ccc(-c2c(O)ccc3[nH]c(=O)c4sccc4c23)cc1` (centres undefined) [US8962648, 1062] showed an IC50 of 31 nM.

Molecule `CC[C@@H](N)c1ccc(-c2c(O)cc(Br)c3[nH]c(=O)c4sccc4c23)cc1` [US8962648, 1150] gave an IC50 of 47 nM.
